This passage reports EC50 results from ChEMBL document CHEMBL1127569, “Comparison of the conformation of active and nonactive backbone cyclic analogs of substance P as a tool to elucidate features of the bioactive conformation: NMR and molecular dynamics in DMSO and water” (J Med Chem, 1994).

One test deals with T1, Substance-K receptor (Homo sapiens, UniProt P21452).
T1 sequence (P21452 whole entry): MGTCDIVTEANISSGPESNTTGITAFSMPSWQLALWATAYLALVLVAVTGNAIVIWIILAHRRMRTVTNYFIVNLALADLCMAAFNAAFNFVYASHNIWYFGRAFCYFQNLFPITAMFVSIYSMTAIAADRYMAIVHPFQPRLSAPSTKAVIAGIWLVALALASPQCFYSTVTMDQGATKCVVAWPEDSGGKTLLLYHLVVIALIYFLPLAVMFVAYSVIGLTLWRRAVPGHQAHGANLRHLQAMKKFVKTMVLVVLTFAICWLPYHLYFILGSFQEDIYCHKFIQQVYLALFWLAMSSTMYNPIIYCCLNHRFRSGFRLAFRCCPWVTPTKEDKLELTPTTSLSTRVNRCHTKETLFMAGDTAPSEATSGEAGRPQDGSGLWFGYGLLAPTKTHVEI
The test can be described thus: Tested for the biological activity and selectivity against NK-2 receptor.

Another test addresses Substance-P receptor (Homo sapiens, UniProt P25103). The test can be described thus: Tested for the biological activity and selectivity against NK-1 receptor.
The target in the next test is T2, Neuromedin-K receptor (Homo sapiens, UniProt P29371).
T2 sequence (P29371 whole entry): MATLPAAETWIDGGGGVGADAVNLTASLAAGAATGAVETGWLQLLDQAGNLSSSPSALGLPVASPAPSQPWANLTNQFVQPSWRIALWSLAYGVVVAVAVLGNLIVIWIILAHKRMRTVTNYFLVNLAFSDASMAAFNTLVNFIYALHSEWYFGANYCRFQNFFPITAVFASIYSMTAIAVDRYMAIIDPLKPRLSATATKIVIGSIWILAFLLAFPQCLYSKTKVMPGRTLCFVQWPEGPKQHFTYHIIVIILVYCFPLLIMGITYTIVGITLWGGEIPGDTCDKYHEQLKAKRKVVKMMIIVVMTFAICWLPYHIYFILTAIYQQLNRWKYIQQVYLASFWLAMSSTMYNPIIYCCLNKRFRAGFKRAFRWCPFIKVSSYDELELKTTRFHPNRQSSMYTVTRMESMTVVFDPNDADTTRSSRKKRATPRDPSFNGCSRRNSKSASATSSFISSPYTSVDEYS
The test can be described thus: Tested for the biological activity and selectivity against NK-3 receptor.

Starred links: 1 amine or outer side, 2 acyl side, 3 side chain; linkers in the order of their positions; H or OH if unused. Positions of bridges follow the written chain, without caps; N, C: chain ends. Non-standard residues stand in square brackets, D forms with d. Residues, ends and D or L forms follow the SMILES beside them. NGly(3-aminopropyl) = O=C(CN(CCCN[*:3])[*:1])[*:2]; N(2-Aminoethyl)Gly = O=C(CN(CCN[*:3])[*:1])[*:2]; Adipoyl = O=C(CCCCC(=O)[*:2])[*:1]; Glutaryl = O=C(CCCC(=O)[*:2])[*:1]; Suc = O=C(CCC(=O)[*:2])[*:1] A value given as a limit tells only on which side of the number the result lay.

Sequence of Substance-P receptor (P25103 whole entry): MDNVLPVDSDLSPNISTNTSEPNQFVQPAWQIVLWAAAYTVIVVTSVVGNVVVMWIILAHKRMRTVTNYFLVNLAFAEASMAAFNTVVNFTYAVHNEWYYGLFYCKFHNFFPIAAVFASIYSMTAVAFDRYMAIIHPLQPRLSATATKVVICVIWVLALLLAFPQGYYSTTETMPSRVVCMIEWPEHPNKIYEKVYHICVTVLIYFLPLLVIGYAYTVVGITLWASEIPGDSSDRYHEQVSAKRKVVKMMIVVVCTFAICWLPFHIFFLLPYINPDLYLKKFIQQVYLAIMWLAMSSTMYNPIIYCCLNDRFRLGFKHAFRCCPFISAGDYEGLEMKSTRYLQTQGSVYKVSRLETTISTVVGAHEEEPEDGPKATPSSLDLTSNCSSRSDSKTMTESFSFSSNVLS

By EC50 is commonly meant the concentration giving half of the maximal effect. For the compound `CSCC[C@H](NC(=O)[C@H](CC(C)C)NC(=O)CN1CCNC(=O)CCC(=O)NCC(=O)N[C@@H](CCCN=C(N)N)C(=O)N[C@@H](Cc2ccccc2)C(=O)N[C@@H](Cc2ccccc2)C1=O)C(N)=O` (GRFF[N(2-Aminoethyl)Gly]LM-NH2; linker N-5 via Suc), the EC50 on Substance-K receptor was above 50 µM; on Substance-P receptor it was above 10 µM; on Neuromedin-K receptor, above 10 µM.
With `CSCC[C@H](NC(=O)[C@H](CC(C)C)NC(=O)CN1CCCNC(=O)CCCCC(=O)N[C@@H](CCCN=C(N)N)C(=O)N[C@@H](Cc2ccccc2)C(=O)N[C@@H](Cc2ccccc2)C1=O)C(N)=O` (RFF[NGly(3-aminopropyl)]LM-NH2; linker N-4 via Adipoyl), the figures for the EC50 on Substance-K receptor, on Substance-P receptor and on Neuromedin-K receptor were above 50 µM, 0.005 µM and above 10 µM, respectively.
The matching figures for `CSCC[C@H](NC(=O)[C@H](CC(C)C)NC(=O)CN1CCCNC(=O)CCCC(=O)N[C@@H](CCCN=C(N)N)C(=O)N[C@@H](Cc2ccccc2)C(=O)N[C@@H](Cc2ccccc2)C1=O)C(N)=O` (RFF[NGly(3-aminopropyl)]LM-NH2; linker N-4 via Glutaryl): above 50 µM, 0.011 µM and above 10 µM.
With `CSCC[C@H](NC(=O)[C@H](CC(C)C)NC(=O)CN1CCCNC(=O)CCC(=O)N[C@@H](CCCN=C(N)N)C(=O)N[C@@H](Cc2ccccc2)C(=O)N[C@@H](Cc2ccccc2)C1=O)C(N)=O` (RFF[NGly(3-aminopropyl)]LM-NH2; linker N-4 via Suc), the EC50 on Substance-K receptor is above 50 µM; on Substance-P receptor, 0.18 µM; at Neuromedin-K receptor, above 10 µM.
